From patent US7198811B2, “Compositions for the preservation of fruits and vegetables” (University of Guelph, priority 2002, dated 2007)

test system: Cortland apples; assay: Superficial scald and softening in Cortland apples versus duration of dip treatment; format: in vivo; conditions: 1 minute, 1500 ppm; CA storage 9 months
Procedure: The effects of antioxidant formulation of the present invention, and subgroups of its chemical components on post harvest qualities of Cortland apples were investigated.
The effect of the duration of dip treatment of Cortland apples using the antioxidant formulation (Example 1, Solution B) is presented in Table 3C. Ten ml of the formulation of was diluted to a liter. […] Twenty randomly selected apples from each of the treatments were removed and kept at room temperature for a week before evaluations were conducted.
Ten ml of the concentrate of the EAM formulation was diluted to one liter to form the final solution. […] Two bushels of apples were dipped in 40 liters of solution for each time period and subjected to controlled atmosphere storage as defined above. Apples were brought out after 9 months of storage. Twenty apples from each treatment were picked randomly from two independent sets, and left at room temperature for one week before evaluating for scald and softening.
Ten ml of the concentrate of the AOX formulation was diluted to one liter to form the final solution. […] Two bushels of apples were dipped in 40 liters of solution for each time period and subjected to controlled atmosphere storage as defined above. Apples were brought out after 9 months of storage. […]

| Structure (SMILES) | Softening % | Superficial scald % |
| --- | --- | --- |
| c1ccc(Nc2ccccc2)cc1 [DPA, diphenylamine] | 25% | 35% |

test system: Vista Cherries; assay: Postharvest dips of compositions or individual components on Vista cherries; note: dipped 2.5 min; format: in vivo; conditions: dipped […], concentration as printed per treatment; stored 4° C. in air
Procedure: Samples were allowed to dry at room temperature and stored at 4° C. in air. Evaluations were conducted two weeks and four weeks after treatment. The results given are mean of twenty sample values.

| Structure (SMILES) | Firmness (kg) 2 weeks | Firmness (kg) 4 weeks | Soluble Solids (%) 4 weeks | Soluble Solids (%) 2 weeks |
| --- | --- | --- | --- | --- |
| [Ca+2].[Cl-].[Cl-] [CaCl2, calcium chloride] | 1.26 kg | 1.09 kg | – | – |
| CCCCCC=O [Hexanal] | 1.24 kg | 1.16 kg | – | – |
| Cc1c(C)c2c(c(C)c1O)CC[C@@](C)(CCC[C@H](C)CCC[C@H](C)CCCC(C)C)O2 [α-tocopherol] | 1.21 kg | 1.12 kg | 16.7% | – |
| CC(C)=CCC/C(C)=C/CO [Geraniol] | 1.01 kg | 1.24 kg | 17% | – |
| c1ccc(CNc2ncnc3nc[nH]c23)cc1 [BA, benzyladenine] | 1.24 kg | 1.14 kg | – | 13.8% |
| CC(=O)OC/C=C(\C)CCC=C(C)C [Geranyl Acetate] | 1.21 kg | 1.12 kg | – | 17% |
| O=C1O[C@H]([C@@H](O)CO)C(O)=C1O [Ascorbic Acid] | 1.2 kg | 1.12 kg | – | – |
